Article PMC9848351, “Discovery of new pyridine-quinoline hybrids as competitive and non-competitive PIM-1 kinase inhibitors with apoptosis induction and caspase 3/7 activation capabilities” (Journal of Enzyme Inhibition and Medicinal Chemistry, 2023)

Experiments:
[1] = target: PIM-2 kinase (Homo sapiens, UniProt Q9P1W9); test: PIM-2 kinase inhibitory activity (Promega kinase assay kit)
Text: (§14) PIM-1 and PIM-2 kinase inhibitory activity
(§15) PIM-1 and PIM-2 kinase utilizing PIM-1 and PIM-2 Kinase Assay Kit – Promega Corporation catalog #V4032, following the manufacturer’s instructions 26

[2] = test system: liver cancer cell line (HepG-2); test: MTT anticancer activity, HepG-2; type: cell-based, human; conditions: Homo sapiens, HepG2; HepG-2, 72 h, MTT; mean ± SEM
Procedure: (§1) Anticancer effect of the above-mentioned compounds was evaluated using four human cancer cell lines. Colon cancer cells (Caco-2), myeloid leukaemia cell line (NFS-60), liver cancer cell line (HepG-2) and prostate cancer cell line (PC-3) using MTT method was used for assaying cell viability[26] (Supplementary Page S55).
(§2) All final compounds were evaluated against four human cancer cell lines namely; liver cancer (HepG2) (ATCC® HB-8065™), colon cancer (Caco-2) (ATCC® HTB-37™), leukaemia cancer (NFS-60) (ATCC® CRL-1838™), and prostate cancer (PC-3) (ATCC® CRL-1435™) using doxorubicin (Dox) as the reference drug being widely used in tumour management utilising microculture MTT assay, declared by Mosmann[26] (Table 1 in Supplementary Material, Figures 5–8). […]
(§3) MTT method was used for assaying cell viability 25. Twenty microliters of 5 mg/ml MTT (Sigma, USA) was added to each well and the plate was incubated at 37 °C for 3 h. Then MTT solution was removed, 100 µl DMSO was used and the absorbance of each well was measured with a microplate reader ( BMG LabTech, Germany) at 570 nm. The effective concentration (IC 50) and safe dose (EC100) values of the tested compounds that cause 50% and 100% cell viability were estimated by the Graphpad Instat software.
(§4) Determination of the anticancer activity
(§5) Anticancer effect of the above-mentioned compounds was evaluated using four human cancer cell lines. Colon cancer cells (Caco-2) were maintained in DMEM (Lonza, USA) containing 10% FBS while myeloid leukemia cell line (NFS-60), liver cancer cell line (HepG-2) and prostate cancer cell line (PC-3) were cultured in RPMI-1640 (Lonza, USA) supplemented with 10% FBS. All cancer cells (5x10^3 cells/well) were seeded in sterile 96-well plates. After 24h, serial concentrations of the tested compounds and Dox were incubated with four cancer cell lines for 72 h at 37 °C in 5% CO2 incubator. MTT method was done as described above. The Graphpad Instat software was used for calculating the half maximal inhibitory concentration (IC50) values. Furthermore, phase contrast inverted microscope with a digital camera (Olympus, Japan) was used for investigating […]
(§6) safest anticancer compounds. […]

[3] = test system: HepG-2; test: Flow cytometric annexin V/PI analysis of apoptosis, HepG-2; type: cell-based, human; conditions: IC50 of compound, 72 h, mean ± SEM
[4] = test system: normal human lung fibroblast Wi-38 cell line; test: MTT cytotoxicity on normal cells; type: cell-based; conditions: Wi-38, 72 h, MTT, mean ± SEM; for EC50: Homo sapiens, 50% cell viability; for Wi-38 EC100: safe dose, 100% cell viability
Procedure: Cytotoxicity of the tested compounds was evaluated using normal human lung fibroblast Wi-38 cell line compared to currently used anticancer drug (doxorubicin) using MTT method was used for assaying cell viability[26] (Supplementary Page S55).
Cytotoxicity test is one of the biological evaluations and screening tests that use human normal and cancer cells in-vitro to observe the effect of the studied compounds on their growth using MTT-based cytotoxicity. Microculture MTT method[26] was used to determine cytotoxic activity of the newly synthesised compounds against normal human lung fibroblast (Wi-38) using doxorubicin (Dox) as standard anticancer drug. The highest IC50 and EC100 values illustrate that the compounds were safe on the proliferation of normal human cells. […]. page 47:
(§7) Cytotoxicity of the tested compounds was evaluated using normal human lung fibroblast Wi-38 cell line compared to currently used anticancer drug (doxorubicin).
as §3, with “Firstly, Wi-38 cell line was subcultured in DMEM medium-contained 10% fetal bovine serum (FBS), then, seeded as 5x10^3 cells per well in 96-well cell culture plate and incubated at 37 °C in 5% CO 2 incubator. Serial concentrations of these compounds and doxorubicin (Dox) were incubat ed with Wi-38 cells for 72 h after 24 h for cell attachment. MTT method” for “MTT method”, “Instat software. […]” for “Instat software.”

[5] = test system: PC-3; test: Flow cytometric annexin V/PI analysis of apoptosis, PC-3; type: cell-based, human; conditions: IC50 of compound, 72 h, mean ± SEM
Procedure: (§8) The apoptosis-dependent […] was determined by quantification of annexin-stained apoptotic cells using the FITC signal detector (FL1) against the phycoerythrin emission signal detector (FL2) (Supplementary Page S55). […]
(§9) MTT method was used for assaying cell viability 25. Twenty microliters of 5 mg/ml MTT (Sigma, USA) was added to each well and the plate was incubated at […]
(§10) 37 °C for 3 h. […]
(§11) Graphpad Instat software.
as §4
as §5, with “values.” for “values. Furthermore, phase contrast inverted microscope with a digital camera (Olympus, Japan) was used for investigating”
(§12) Flow cytometric analysis of apoptosis
(§13) Caco-2, PC-3 and NFS-60 cell lines. After trypsinization, the untreated and treated cells were incubated with annexin V/PI for 15 min. Then cells were fixed and incubated with streptavidin-fluorescein (5 µg/mL) for 15 min. The apoptosis-dependent anticancer effect was determined by quantification of annexin-stained apoptotic cells using the FITC signal detector (FL1) against the phycoerythrin emission signal detector (FL2). […]

[6] = target: T1, PIM-1 kinase (Homo sapiens, UniProt P11309); test: PIM-1 kinase inhibitory activity (Promega kinase assay kit)
Text: as §14, §15

[7] = test system: NFS-60; test: Flow cytometric annexin V/PI analysis of apoptosis, NFS-60; type: cell-based, human; conditions: IC50 of compound, 72 h, mean ± SEM
Procedure: as §8, §9, §10, §11, §4
as §5, with “values.” for “values. Furthermore, phase contrast inverted microscope with a digital camera (Olympus, Japan) was used for investigating”
as §12, §13

[8] = test system: prostate cancer cell line (PC-3); test: MTT anticancer activity, PC-3; type: cell-based, human; conditions: Homo sapiens, 72 h, PC-3, 72 h, mean ± SEM
Procedure: as §1, §2, §3, §4, §5, §6

[9] = test system: Colon cancer cells (Caco-2); test: MTT anticancer activity, Caco-2; type: cell-based, human; conditions: for IC50: Homo sapiens, Caco-2, 72 h, MTT, mean ± SEM; for Caco-2 SI: selectivity index, Wi-38 versus Caco-2
Procedure: as §1
All final compounds were evaluated against four human cancer cell lines namely; liver cancer (HepG2) (ATCC® HB-8065™), colon cancer (Caco-2) (ATCC® HTB-37™), leukaemia cancer (NFS-60) (ATCC® CRL-1838™), and prostate cancer (PC-3) (ATCC® CRL-1435™) using doxorubicin (Dox) as the reference drug being widely used in tumour management utilising microculture MTT assay, declared by Mosmann[26] (Table 1 in Supplementary Material, Figures 5–8).
as §7
as §3, with “Firstly, Wi-38 cell line was subcultured in DMEM medium-contained 10% fetal bovine serum (FBS), then, seeded as 5x10^3 cells per well in 96-well cell culture plate and incubated at 37 °C in 5% CO 2 incubator. Serial concentrations of these compounds and doxorubicin (Dox) were incubat ed with Wi-38 cells for 72 h after 24 h for cell attachment. MTT method” for “MTT method”
as §4, §5, §6

[10] = test system: myeloid leukaemia cell line (NFS-60); test: MTT anticancer activity, NFS-60; type: cell-based; conditions: NFS-60, 72 h, MTT; mean ± SEM
Procedure: as §1, §2, §3, §4, §5, §6

[11] = target: T1, PIM-1 kinase; test: Mechanism of PIM-1 kinase inhibition, Lineweaver–Burk double-reciprocal plot; type: biochemical; design: purchased Promega Corporation #V4032

T1 sequence (P11309 whole entry): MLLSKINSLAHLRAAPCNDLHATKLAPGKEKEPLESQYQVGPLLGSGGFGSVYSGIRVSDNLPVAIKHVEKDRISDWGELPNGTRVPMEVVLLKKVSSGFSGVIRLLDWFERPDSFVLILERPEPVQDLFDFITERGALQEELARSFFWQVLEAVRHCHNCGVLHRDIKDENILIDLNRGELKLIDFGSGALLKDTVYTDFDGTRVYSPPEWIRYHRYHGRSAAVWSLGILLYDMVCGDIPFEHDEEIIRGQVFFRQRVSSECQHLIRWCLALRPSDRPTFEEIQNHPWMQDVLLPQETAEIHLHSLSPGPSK
Chain of PIM-2 kinase (Q9P1W9 whole entry): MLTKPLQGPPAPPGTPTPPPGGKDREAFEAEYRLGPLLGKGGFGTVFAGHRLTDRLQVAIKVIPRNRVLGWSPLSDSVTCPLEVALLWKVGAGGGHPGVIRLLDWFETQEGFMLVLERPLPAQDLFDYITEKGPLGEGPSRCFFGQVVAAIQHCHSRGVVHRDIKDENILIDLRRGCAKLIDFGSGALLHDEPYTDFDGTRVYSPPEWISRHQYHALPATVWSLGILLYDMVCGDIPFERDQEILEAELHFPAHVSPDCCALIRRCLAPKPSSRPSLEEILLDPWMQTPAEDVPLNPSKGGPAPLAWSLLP

Row | Compound | IC50 [1] [nM] | IC50 [2] [nM] | IC50 [6] [nM] | IC50 [8] [nM] | IC50 [9] [nM] | Caco-2 LE ([9]; ligand efficiency from IC50 and number of heavy atoms) | Caco-2 LLE ([9]; ligand lipophilic efficiency, potency in terms of lipophilicity) | IC50 [10] [nM] | mechanism of PIM-1 kinase inhibition [11] | Vmax compared with control ([11]; Y-intercept) | melting point [°C] | total percentage of the apoptotic cell population, HepG-2 [3] [%] | EC50 [4] [nM] | Wi-38 EC100 [4] [µM] | total percentage of the apoptotic cell population, PC-3 [5] [%] | total percentage of the apoptotic cell population, NFS-60 [7] [%] | Caco-2 SI [9]
1 | O=c1c(O)c(-c2ccc(O)c(O)c2)oc2cc(O)cc(O)c12 [Quercetin, reference compound] | 610 |  |  |  |  |  |  |  |  |  |  |  |  |  |  |  | 
2 | CC(=O)Oc1cccc(-c2cc(-c3cc4cc(Cl)ccc4nc3N3CCOCC3)c(C#N)c(=O)[nH]2)c1 [7b, 3-(4-(6-Chloro-2-morpholin-4-yl-quinolin-3-yl)-5-cyano-6-oxo-1,6-dihydropyridin-2-yl)phenyl acetate] |  | 101.6 ± 1 |  | 135 ± 2 | 119 ± 16 |  |  | 107 ± 1 |  |  | 189 to 190 |  | 140 ± 9 | 0.110 ± 0.002 |  |  | 1.176
3 | N#Cc1c(-c2cc3ccccc3nc2N2CCCCC2)cc(-c2cccc(O)c2)[nH]c1=O [5d, 6-(3-Hydroxyphenyl)-2-oxo-4-(2-(piperidin-1-yl)quinoline-3-yl)-1,2-dihydropyridine-3-carbonitrile] |  | 89.7 ± 13 |  | 53.4 ± 4 | 38.6 ± 1 |  |  | 71.3 ± 3 |  |  | 244 to 246 |  | 29.9 ± 0.1 | 0.0239 ± 0.0003 |  |  | 0.775
4 | N#Cc1c(-c2cc3ccccc3nc2N2CCCCC2)cc(-c2cccc(O)c2)nc1S [6d, 6-(3-Hydroxyphenyl)-4-(2-(piperidin-1-yl)quinolin-3-yl)-2-mercaptopyridine-3-carbonitrile] |  | 87.6 ± 2 |  | 135 ± 11 | 70.8 ± 3 |  |  | 217 ± 22 |  |  | > 300 |  | 759 ± 25 | 0.212 ± 0.009 |  |  | 10.720

Continued, in another order:

Row | IC50 [1] [nM] | IC50 [2] [nM] | IC50 [6] [nM] | IC50 [8] [nM] | IC50 [9] [nM] | Caco-2 LE ([9]; ligand efficiency from IC50 and number of heavy atoms) | Caco-2 LLE ([9]; ligand lipophilic efficiency, potency in terms of lipophilicity) | IC50 [10] [nM] | mechanism of PIM-1 kinase inhibition [11] | Vmax compared with control ([11]; Y-intercept) | melting point [°C] | Compound | total percentage of the apoptotic cell population, HepG-2 [3] [%] | EC50 [4] [nM] | Wi-38 EC100 [4] [µM] | total percentage of the apoptotic cell population, PC-3 [5] [%] | total percentage of the apoptotic cell population, NFS-60 [7] [%] | Caco-2 SI [9]
5 | 1490 | 12.2 ± 0.1 | 1100 | 42.9 ± 3 | 27 ± 2 | 0.30 | 2.73 | 53.9 ± 0.1 | competitive inhibitors | the same Vmax in comparison with control |  | COc1ccc2nc(N3CCCCC3)c(-c3cc(-c4cccc(O)c4)nc(S)c3C#N)cc2c1 [6e, 6-(3-Hydroxyphenyl)-4-(6-methoxy-2-(piperidin-1-yl)quinolin-3-yl)-2-mercaptopyridine-3-carbonitrile] | 69.02 ± 0.18 | 155 ± 3 | 0.0277 ± 0.0001 | 68.81 ± 0.49 | 68.385 ± 0.54 | 5.741
6 |  | 62.8 ± 1 |  | 83.9 ± 3 | 62.6 ± 1 |  |  | 103 ± 9 |  |  | 269 to 270 | COc1ccc2nc(N3CCOCC3)c(-c3cc(-c4cccc(O)c4)nc(OCC(=O)Nc4ccccc4)c3C#N)cc2c1 [11g, 2-((3-Cyano-6-(3-hydroxyphenyl)-4-(6-methoxy-2-morpholin-4-yl-quinolin-3-yl)pyridin-2-yl)oxy)-N-phenylacetamide] |  | 186 ± 10 | 0.0450 ± 0.005 |  |  | 2.971
